{
  "source": "ChEMBL document CHEMBL1122308",
  "about": "“Bicyclic lactones derived from kainic acid as novel selective antagonists of neuroexcitatory amino acids” (J Med Chem, 1983)",
  "format_in_all_cases": "functional",
  "key": {"[1]": {"species_on_record": "Rattus norvegicus", "assay": "Percentage response to 0.5 mM of L-Glutamic acid at 1.5 mM in rat striatum slices."}, "[2]": {"species_on_record": "Rattus norvegicus", "assay": "Percentage response to 0.1 mM of quisqualic acid at 1 mM in rat striatum slices."}, "[3]": {"species_on_record": "Rattus norvegicus", "assay": "Percentage response to 0.1 mM of kainic acid (KA) at 1 mM in rat striatum slices."}, "[4]": {"species_on_record": "Rattus norvegicus", "assay": "Percentage response to 30 uM of N-methyl-D-aspartic acid (NMDA) at 1.5 mM in rat striatum slices."}, "[5]": {"species_on_record": "Rattus norvegicus", "assay": "Percentage response to 0.5 mM of L-Glutamic acid at 2 mM in rat striatum slices."}, "[6]": {"species_on_record": "Rattus norvegicus", "assay": "Percentage response to 0.1 mM of quisqualic acid at 2 mM in rat striatum slices."}, "[7]": {"species_on_record": "Rattus norvegicus", "assay": "Percentage response to 30 uM of N-methyl-D-aspartic acid (NMDA) at 2 mM in rat striatum slices."}, "[8]": {"species_on_record": "Rattus norvegicus", "assay": "Percentage response to 0.1 mM of kainic acid (KA) at 2 mM in rat striatum slices."}, "[9]": {"species_on_record": "Rattus norvegicus", "assay": "Concentration at which the compound inhibits half of the response of N-methyl-D-aspartic acid (NMDA)"}, "[10]": {"species_on_record": "Rattus norvegicus", "assay": "Concentration at which the compound inhibits half of the response of kainic acid (KA)"}, "[11]": {"species_on_record": "Rattus norvegicus", "assay": "Percentage response to 30 uM of N-methyl-D-aspartic acid (NMDA) at 3 mM in rat striatum slices."}, "[12]": {"species_on_record": "Rattus norvegicus", "assay": "Percentage response to 0.5 mM of L-Glutamic acid at 3 mM in rat striatum slices."}, "[13]": {"species_on_record": "Rattus norvegicus", "assay": "Percentage response to 0.1 mM of quisqualic acid at 3 mM in rat striatum slices."}, "[14]": {"species_on_record": "Rattus norvegicus", "assay": "Percentage response to 0.1 mM of kainic acid (KA) at 3 mM in rat striatum slices."}, "[15]": {"species_on_record": "Rattus norvegicus", "assay": "Percentage response to 0.5 mM of L-Glutamic acid at 1 mM in rat striatum slices."}, "[16]": {"species_on_record": "Rattus norvegicus", "assay": "Percentage response to 30 uM of N-methyl-D-aspartic acid (NMDA) at 1 mM in rat striatum slices."}},
  "data": [
    {"smiles": "CC1(CSc2ccccc2)OC(=O)C[C@@H]2[C@@H](C(=O)O)NC[C@@H]21", "note": "(stereo partly drawn)", "values": [
      {"measurement": "Response", "setting": "[1]", "value": 84, "unit": "%"},
      {"measurement": "Response", "setting": "[2]", "value": 76, "unit": "%"},
      {"measurement": "Response", "setting": "[3]", "value": "<16", "unit": "%"},
      {"measurement": "Response", "setting": "[4]", "value": "<10", "unit": "%"}
    ]},
    {"smiles": "CC1(CI)OC(=O)C[C@@H]2[C@@H](C(=O)O)NC[C@@H]21", "note": "(stereo partly drawn)", "values": [
      {"measurement": "Response", "setting": "[5]", "value": 74, "unit": "%"},
      {"measurement": "Response", "setting": "[6]", "value": 96, "unit": "%"},
      {"measurement": "Response", "setting": "[7]", "value": "<42", "unit": "%"},
      {"measurement": "Response", "setting": "[8]", "value": "<15", "unit": "%"}
    ]},
    {"smiles": "CC1(C)OC(=O)C[C@@H]2[C@@H](C(=O)O)NC[C@@H]21", "values": [
      {"measurement": "Response", "setting": "[5]", "value": 96, "unit": "%"},
      {"measurement": "IC50", "setting": "[9]", "value": 300, "unit": "µM"},
      {"measurement": "Response", "setting": "[6]", "value": 94, "unit": "%"},
      {"measurement": "IC50", "setting": "[10]", "value": 3000, "unit": "µM"},
      {"measurement": "Response", "setting": "[7]", "value": "<16", "unit": "%"},
      {"measurement": "Response", "setting": "[8]", "value": 66, "unit": "%"}
    ]},
    {"smiles": "CC1(CI)OC(=O)C[C@@H]2[C@H](C(=O)O)NC[C@@H]21", "note": "(stereo partly drawn)", "values": [
      {"measurement": "Response", "setting": "[5]", "value": 79, "unit": "%"},
      {"measurement": "Response", "setting": "[6]", "value": 111, "unit": "%"},
      {"measurement": "Response", "setting": "[7]", "value": "<49", "unit": "%"},
      {"measurement": "Response", "setting": "[8]", "value": "<8", "unit": "%"}
    ]},
    {"smiles": "CC1(CO)OC(=O)C[C@@H]2[C@@H](C(=O)O)NC[C@@H]21", "note": "(stereo partly drawn)", "values": [
      {"measurement": "IC50", "setting": "[9]", "value": 2000, "unit": "µM"},
      {"measurement": "Response", "setting": "[11]", "value": "<36", "unit": "%"},
      {"measurement": "Response", "setting": "[12]", "value": 106, "unit": "%"},
      {"measurement": "Response", "setting": "[13]", "value": 94, "unit": "%"},
      {"measurement": "IC50", "setting": "[10]", "value": 3000, "unit": "µM"},
      {"measurement": "Response", "setting": "[14]", "value": "<50", "unit": "%"}
    ]},
    {"smiles": "CC1(CSc2ccccc2)OC(=O)C[C@@H]2[C@H](C(=O)O)NC[C@@H]21", "note": "(stereo partly drawn)", "values": [
      {"measurement": "Response", "setting": "[15]", "value": 87, "unit": "%"},
      {"measurement": "Response", "setting": "[16]", "value": "<36", "unit": "%"},
      {"measurement": "Response", "setting": "[2]", "value": "<53", "unit": "%"},
      {"measurement": "Response", "setting": "[3]", "value": "<0", "unit": "%"},
      {"measurement": "IC50", "setting": "[10]", "value": 200, "unit": "µM"}
    ]},
    {"smiles": "NC(CCCP(=O)(O)O)C(=O)O", "note": "(stereo not drawn)", "values": [
      {"measurement": "Response", "setting": "[15]", "value": "<64", "unit": "%"},
      {"measurement": "Response", "setting": "[16]", "value": "<0", "unit": "%"},
      {"measurement": "Response", "setting": "[2]", "value": "<91", "unit": "%"},
      {"measurement": "Response", "setting": "[3]", "value": 118, "unit": "%"}
    ]}
  ]
}
